From publication PMC7339578, “Multiple circulating alkaloids and saponins from intravenous Kang-Ai injection inhibit human cytochrome P450 and UDP-glucuronosyltransferase isozymes: potential drug–drug interactions” (Chinese Medicine, 2020)
“And” between values parts separate entries of the source, which are not always exact repeats. Identical values can stand only once. Like-named read-outs stand apart in the source and are kept apart here.

Tests used:
CYP3A4 = CYP3A4 (Homo sapiens, UniProt P08684); assay: Inhibition of recombinant CYP3A4 (probe nifedipine); format: in vitro ADME
Chain of CYP3A4 (P08684 whole entry): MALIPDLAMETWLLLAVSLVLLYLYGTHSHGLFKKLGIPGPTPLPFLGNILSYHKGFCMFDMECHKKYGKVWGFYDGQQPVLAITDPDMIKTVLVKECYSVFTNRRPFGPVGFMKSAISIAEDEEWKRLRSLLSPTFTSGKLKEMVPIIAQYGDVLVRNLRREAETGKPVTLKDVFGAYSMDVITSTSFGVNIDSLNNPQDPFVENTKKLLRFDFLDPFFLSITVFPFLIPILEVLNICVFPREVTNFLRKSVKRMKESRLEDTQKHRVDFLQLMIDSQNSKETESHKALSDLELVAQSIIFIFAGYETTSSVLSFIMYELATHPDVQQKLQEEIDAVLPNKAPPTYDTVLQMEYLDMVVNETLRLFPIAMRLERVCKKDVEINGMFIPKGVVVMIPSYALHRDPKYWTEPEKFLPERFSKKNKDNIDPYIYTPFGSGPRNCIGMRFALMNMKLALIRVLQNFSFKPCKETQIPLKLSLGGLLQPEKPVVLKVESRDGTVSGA
Method: (§1) In this study, phenacetin (100 μM), coumarin (100 μM), bupropion (100 μM), paclitaxel (60 μM), tolbutamide (200 μM), mephenytoin (100 μM), chlorzoxazone (200 μM) and nifedipine (40 μM) have been used as the probe substrates for CYP1A2, 2A6, 2B6, 2C8, 2C9, 2C19, 2E1 and 3A4, respectively.

[1] = Stability tests of analytes in rat plasma QC samples; format: in vitro ADME
Method: […] The dilution integrity was investigated by analyzing six replicate samples with each analyte, and each analyte were diluted 10-fold with blank rat matrix. Furthermore, the diluted samples were analyzed using freshly prepared calibration curve to calculate RE and RSD, which should be no more than ± 15% as criterion.

CYP2E1 = CYP2E1 (Homo sapiens, UniProt P05181); assay: Inhibition of recombinant CYP2E1 (probe chlorzoxazone)
Chain of CYP2E1 (P05181 whole entry): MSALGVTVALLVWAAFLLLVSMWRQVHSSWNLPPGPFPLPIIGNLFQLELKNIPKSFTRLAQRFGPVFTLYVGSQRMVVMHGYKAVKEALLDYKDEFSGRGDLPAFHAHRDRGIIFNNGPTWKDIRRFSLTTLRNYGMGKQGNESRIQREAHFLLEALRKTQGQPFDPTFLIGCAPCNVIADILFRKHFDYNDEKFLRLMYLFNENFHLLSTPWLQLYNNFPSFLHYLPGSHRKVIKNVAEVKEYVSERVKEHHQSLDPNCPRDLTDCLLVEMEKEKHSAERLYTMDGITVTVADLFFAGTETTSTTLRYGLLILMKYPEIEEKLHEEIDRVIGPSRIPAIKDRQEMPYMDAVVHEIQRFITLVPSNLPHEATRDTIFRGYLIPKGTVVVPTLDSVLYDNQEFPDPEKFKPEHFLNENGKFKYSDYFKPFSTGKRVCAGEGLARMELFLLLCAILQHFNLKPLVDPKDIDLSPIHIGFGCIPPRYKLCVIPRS
Method: Phase I incubation system (100 μL) contained Tris–HCl buffer (50 mM, pH = 7.4), MgCl2 (5 mM), each CYP isozyme, specific substrates, circulating compounds and NADPH (1 mM) as prescribed previously. After incubation (37 °C, 60 min), the reaction was terminated by ice-cold acetonitrile (100 μL), following by centrifugation at 13,800g for 10 min. The supernatant (8 μL) was acquired for ultra-high-performance liquid chromatography (UHPLC) system (Waters, Manchester, UK) analysis.
After optimization of incubation conditions (Additional file 1: Fig. S1), the substrates were incubated with each CYP isozyme at different protein concentrations (0.05 mg/mL for CYP1A2 and 3A4; 0.1 mg/mL for CYP2A6, 2B6, 2C8, 2C9, 2C19 and 2E1) in the absence (control) and presence of different mixture or herbal compounds (Kang-Ai injection and samples that Kang-Ai injection was diluted 10 times; 1, 10, and 100 μM for matrine and oxymatrine; 0.1, 1, 10 and 100 μM for astragalosides and ginsenosides).
The half-inhibition concentration (IC50) values were determined by non-linear regression analysis. […] The inhibition mechanism towards corresponding CYP and UGT isoforms were further explored.
The inhibition constant (Ki) values were obtained by multiple concentrations of substrates in the absence or presence of multiple concentrations of herbal compounds as described previously. […] (1)–(3), respectively. The model with the smallest Akaike information criterion (AIC) and Schwartz information criterion (SC) values was considered as the best model, following the obtained appropriate Ki values. Model fitting and parameter estimation were performed using Graphpad Prism V5 software (SanDiego, CA).

CYP2B6 = target: T1, CYP2B6 (Homo sapiens, UniProt P20813); assay: Inhibition of recombinant CYP2B6 (probe bupropion); format: in vitro ADME
T1 sequence (P20813 1-491): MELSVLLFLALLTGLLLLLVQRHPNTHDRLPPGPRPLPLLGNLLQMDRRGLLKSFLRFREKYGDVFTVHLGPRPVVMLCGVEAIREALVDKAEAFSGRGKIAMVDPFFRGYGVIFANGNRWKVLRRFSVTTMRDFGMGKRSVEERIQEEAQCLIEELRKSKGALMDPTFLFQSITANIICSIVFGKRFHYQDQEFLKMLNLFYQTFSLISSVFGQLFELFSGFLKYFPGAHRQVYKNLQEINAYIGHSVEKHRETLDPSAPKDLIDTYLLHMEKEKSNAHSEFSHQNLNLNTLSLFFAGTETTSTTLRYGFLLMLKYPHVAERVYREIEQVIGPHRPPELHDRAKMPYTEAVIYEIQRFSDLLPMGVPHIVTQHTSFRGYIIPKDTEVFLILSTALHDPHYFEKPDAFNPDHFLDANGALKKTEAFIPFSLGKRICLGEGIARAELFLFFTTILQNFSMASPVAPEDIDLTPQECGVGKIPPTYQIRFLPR
Method: as §1

[2] = Urinary (renal) excretion in rats after a 30-min infusion of Kang-Ai injection; format: in vivo, Sprague–Dawley rats; conditions: for CL renal: male, Sprague-Dawley, rat
Summary of the method: (§2)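 Urine collected in metabolic cages at 0–4, 4–8, 8–12 h and bile at 0–3, 3–6, 6–9, 9–12 h after infusion start, weighed and frozen at −80 °C. Non-compartmental analysis; CLR and CLB as cumulative urinary or biliary amount divided by plasma AUC0-∞, fe-U and fe-B as cumulative amount/dose; mean ± SD (n = 3).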

[3] = Biliary (hepatobiliary) excretion in rats after a 30-min infusion of Kang-Ai injection; format: in vivo, Sprague–Dawley rats
Summary of the method: as §2

CYP2C19 = CYP2C19 (Homo sapiens, UniProt P33261); assay: Inhibition of recombinant CYP2C19 (probe mephenytoin); format: in vitro ADME
Chain of CYP2C19 (P33261 whole entry): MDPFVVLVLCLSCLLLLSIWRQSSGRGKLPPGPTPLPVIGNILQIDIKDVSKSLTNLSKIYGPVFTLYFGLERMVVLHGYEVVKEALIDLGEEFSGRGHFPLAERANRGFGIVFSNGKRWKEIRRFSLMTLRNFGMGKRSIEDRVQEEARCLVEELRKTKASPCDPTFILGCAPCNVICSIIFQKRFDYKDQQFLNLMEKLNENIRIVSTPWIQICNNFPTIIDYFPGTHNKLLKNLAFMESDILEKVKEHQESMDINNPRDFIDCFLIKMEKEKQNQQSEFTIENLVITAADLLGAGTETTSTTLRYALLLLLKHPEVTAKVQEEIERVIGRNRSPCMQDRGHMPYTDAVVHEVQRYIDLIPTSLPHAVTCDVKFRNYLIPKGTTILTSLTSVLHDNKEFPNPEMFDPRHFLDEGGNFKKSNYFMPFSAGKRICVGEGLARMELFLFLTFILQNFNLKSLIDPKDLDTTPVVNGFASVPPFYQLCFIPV
Method: as §1

[4] = rat plasma, nominal conc. 20 nM
[5] = rat plasma, nominal conc. 100 nM
[6] = rat plasma, nominal conc. 400 nM

## O=C1CCC[C@@H]2[C@H]3CCC[N+]4([O-])CCC[C@@H](CN12)[C@@H]34 (some centres unmarked) [Compound A3, Oxymatrine]
CYP3A4; IC50 towards CYP3A4, recombinant isozyme, mean ± SD of triplicate, unit not given (IC50 classes in μM)
  IC50: > 100 µM
[1]; rat, 80 nM
  Three freeze-thaw cycles (-80 °C ↔ 23 °C), Mean±SD: 82.92 ± 3.13 nM
[1]; rat, 400 nM
  Three freeze-thaw cycles (-80 °C ↔ 23 °C), Mean±SD: 406.54 ± 20.44 nM
[1]; rat, 1600 nM
  Three freeze-thaw cycles (-80 °C ↔ 23 °C), Mean±SD: 1588.35 ± 117.83 nM
[1]; rat, 6 h, 80 nM
  Short-term stability at room temperature for 6 h, Mean±SD: 81.69 ± 3.23 nM
[1]; rat, 6 h, 400 nM
  Short-term stability at room temperature for 6 h, Mean±SD: 391.75 ± 44.05 nM
[1]; rat, 6 h, 1600 nM
  Short-term stability at room temperature for 6 h, Mean±SD: 1629.42 ± 112.91 nM
[1]; rat, 18 h, 80 nM
  Extracted samples at 8 °C for 18 h, Mean±SD: 76.52 ± 2.34 nM
[1]; rat, 18 h, 400 nM
  Extracted samples at 8 °C for 18 h, Mean±SD: 410.83 ± 21.99 nM
[1]; rat, 18 h, 1600 nM
  Extracted samples at 8 °C for 18 h, Mean±SD: 1553.29 ± 127.31 nM
[1]; rat, 48 h, 80 nM
  At -80 °C for 48 h, Mean±SD: 83.89 ± 6.74 nM
[1]; rat, 48 h, 400 nM
  At -80 °C for 48 h, Mean±SD: 422.79 ± 10.74 nM
[1]; rat, 48 h, 1600 nM
  At -80 °C for 48 h, Mean±SD: 1578.58 ± 168.35 nM
CYP2E1
  IC50: > 100 µM
CYP2B6; IC50 towards CYP2B6, recombinant isozyme, mean ± SD of triplicate, unit not given (IC50 classes in μM)
  IC50: > 100 µM
[2]; in vivo, iv
  CL renal: 1.18 mL/min
[3]; male, Sprague-Dawley, rat, in vivo, iv
  CLB (hepatobiliary clearance): 31.95 ± 4.76 mL/h
CYP2C19
  IC50: > 100 µM

## O=C1CCC[C@@H]2[C@H]3CCCN4CCC[C@@H](CN12)[C@@H]34 [Compound A1, Matrine]
CYP3A4
  IC50: > 100 µM
[1]; [4]
  At -80 °C for 48 h, Mean±SD: 21.33 ± 1.64 nM
  At -80 °C for 48 h, RE: 10.69%
  Extracted samples at 8 °C for 18 h, Mean±SD: 21.75 ± 0.99 nM
  Extracted samples at 8 °C for 18 h, RE: 13.23%
  Short-term stability at room temperature for 6 h, Mean±SD: 20.84 ± 0.75 nM
  Short-term stability at room temperature for 6 h, RE: 8.05%
  Three freeze-thaw cycles (-80 °C ↔ 23 °C), Mean±SD: 20.11 ± 1.97 nM
  Three freeze-thaw cycles (-80 °C ↔ 23 °C), RE: -9.75%
[1]; [5]
  At -80 °C for 48 h, Mean±SD: 106.76 ± 6.22 nM
  At -80 °C for 48 h, RE: 13.15%
  Extracted samples at 8 °C for 18 h, Mean±SD: 95.18 ± 2.64 nM
  Extracted samples at 8 °C for 18 h, RE: -7.17%
  Short-term stability at room temperature for 6 h, Mean±SD: 100.30 ± 2.84 nM
  Short-term stability at room temperature for 6 h, RE: 3.05%
  Three freeze-thaw cycles (-80 °C ↔ 23 °C), Mean±SD: 104.44 ± 12.01 nM
  Three freeze-thaw cycles (-80 °C ↔ 23 °C), RE: 14.16%
[1]; [6]
  At -80 °C for 48 h, Mean±SD: 394.46 ± 17.47 nM
  At -80 °C for 48 h, RE: -6.06%
  Extracted samples at 8 °C for 18 h, Mean±SD: 402.13 ± 26.43 nM
  Extracted samples at 8 °C for 18 h, RE: 7.87%
  Short-term stability at room temperature for 6 h, Mean±SD: 420.24 ± 21.99 nM
  Short-term stability at room temperature for 6 h, RE: 11.33%
  Three freeze-thaw cycles (-80 °C ↔ 23 °C), Mean±SD: 415.19 ± 9.89 nM
  Three freeze-thaw cycles (-80 °C ↔ 23 °C), RE: 5.94%
CYP2E1
  IC50: > 100 µM
CYP2B6
  IC50: > 100 µM
[2]; urine and plasma, Kang-Ai injection 6 mL/kg iv, read-out: CLR (renal excretory clearance) (converted)
  CL renal: 0.015 mL/min
[2]; rat urine 0–12 h, Kang-Ai injection 6 mL/kg iv
  fe-U,0–12h (fraction of dose excreted into urine): 57.40% and 57.40 ± 4.88%
[2]; rat urine + bile, 0–12 h, Kang-Ai injection 6 mL/kg iv
  fraction of dose excreted unchanged via renal plus hepatobiliary excretion (sum of fe-U and fe-B): exceeded 90%
[3]; rat bile 0–12 h, Kang-Ai injection 6 mL/kg iv
  fe-B,0–12h (fraction of dose excreted into bile): 36.55% and 36.55 ± 4.24%
CYP2C19
  IC50: > 100 µM
